Reference: PMC7215714

Columns and labels:
C2C12 cells = test system: C2C12 cells; design: method as in PMID 30925718; settings: C2C12 mouse skeletal muscle cell line; cited from earlier work
[1] = test system: caspases 3 and 9 in SH-SY5Y cells; test: Western blotting of cleaved caspase 3 and 9; format: cell-based, human; settings: 2000 µM, 6 h, both differentiated and undifferentiated SH-SY5Y cells
Experimental: Amiodarone 50 μM and MDMA 1000 μM were used as negative controls. After treatment, cells were washed twice with cold PBS buffer (pH 7.4) and incubated with 70 μL of cell lysis buffer (radioimmunoprecipitation assay (RIPA) buffer supplemented with complete protease inhibitor (Roche Diagnostics, Mannheim, Germany)) for 15 min on ice. Then, the cell lysates were collected into Eppendorf tubes and centrifuged at 1600 g for 20 min. […] The protein extracts (18 μg per lane) were loaded, separated by SDS/PAGE using 4–12% NuPAGE Bis-Tris gels (Invitrogen, Basel, Switzerland), and then transferred to nitrocellulose membranes by the Trans-Blot Turbo Blotting System (Bio-Rad, Cressier, Switzerland). […] Protein expression was quantified using the Fusion Pulse TS device (Vilber Lourmat, Oberschwaben, Germany).

SH-SY5Y cells = test system: SH-SY5Y cells; design: method as in PMID 32295288; settings: cited from earlier work
[2] = test system: mitochondria obtained from the hippocampus, cortex, and cerebellum of rats; settings: cited from earlier work
[3] = cited from earlier work

Q: For CCCC(C(=O)c1ccccc1)N1CCCC1 (stereo not drawn) [α-PVP, α-pyrrolidinopentiophenone], which “Electron transport chain complexes with reduced activity” value (C2C12 cells) is on record?
A: Its value is “complex I”.

Q: With CCCC(C(=O)c1ccc2ccccc2c1)N1CCCC1 (stereo not shown) [naphyrone] as the compound, how does the “Electron transport chain complexes with reduced activity” value (C2C12 cells) read?
A: The value was “complex II”.

Q: Which “Expression of cleaved caspase 9” value [1] does the source give for CNC(C)C(=O)c1ccc(Cl)cc1 (stereo not shown) [4-CMC, 4-chloromethcathinone] here?
A: Its value is “increased the expression of cleaved caspase 9”.

Q: And the Effect on autophagy (SH-SY5Y cells)?
A: The Effect on autophagy was “stimulates autophagy”.

Q: For CNC(C)C(=O)c1ccc(C)cc1 (stereo not shown) [4-MMC, 4-methylmethcathinone], which “Effect on mitochondrial ROS levels and outer mitochondrial membrane” value [2] is on record?
A: Its value is “increases mitochondrial ROS levels and damages the outer mitochondrial membrane”.

Q: With CC(N)Cc1ccccc1 (stereo not shown) [amphetamine, Amphetamine] as the compound, how does the “Plasma concentrations reached after a pharmacological dose” value [3] read?
A: The value was “low micromolar range”.

Q: Which “Electron transport chain complexes with reduced activity” value (C2C12 cells) does the source give for CNC(C)Cc1ccc2c(c1)OCO2 (stereo not shown) [MDMA, 3,4-methylenedioxymethamphetamine] here?
A: The value was “reduced the activity of complexes I and III”.
